# Measurements: ChEMBL document CHEMBL1133030, “Synthesis and in vitro evaluation of human FP-receptor selective prostaglandin analogues” (Bioorg Med Chem Lett, 2000)
# What was measured:
# [1] = target: T1, Prostaglandin F2-alpha receptor (Homo sapiens, UniProt P43088); assay: Functional activity in RAT-1cells, transiently-transfected with human FP-receptor (% of control ligand, fluprostenol=50%)
# [2] = target: T2, Prostaglandin E2 receptor EP1 subtype (Homo sapiens, UniProt P34995); assay: Functional activity in RAT-1cells, transiently-transfected with human Prostaglandin E receptor EP1 (% of control ligand, 17-phi-PGE2<50%)
# T2 sequence (P34995 whole entry): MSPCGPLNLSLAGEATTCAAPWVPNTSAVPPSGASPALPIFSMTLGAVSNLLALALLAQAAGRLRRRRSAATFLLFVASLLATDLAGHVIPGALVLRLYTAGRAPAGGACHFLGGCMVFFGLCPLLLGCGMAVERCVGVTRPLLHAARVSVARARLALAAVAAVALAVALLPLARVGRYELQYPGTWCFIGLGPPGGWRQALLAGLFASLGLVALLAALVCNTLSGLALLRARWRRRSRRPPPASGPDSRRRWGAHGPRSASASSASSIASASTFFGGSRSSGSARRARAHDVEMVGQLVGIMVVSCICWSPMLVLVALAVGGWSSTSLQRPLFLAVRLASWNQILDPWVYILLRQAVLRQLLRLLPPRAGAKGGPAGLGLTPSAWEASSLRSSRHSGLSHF
# [3] = target: T3, Prostaglandin E2 receptor EP3 subtype (Homo sapiens, UniProt P43115); assay: Functional activity in RAT-1cells, transiently-transfected with human Prostaglandin E receptor EP3 (% of control ligand, sulprostone<50%)
# T3 sequence (P43115 whole entry): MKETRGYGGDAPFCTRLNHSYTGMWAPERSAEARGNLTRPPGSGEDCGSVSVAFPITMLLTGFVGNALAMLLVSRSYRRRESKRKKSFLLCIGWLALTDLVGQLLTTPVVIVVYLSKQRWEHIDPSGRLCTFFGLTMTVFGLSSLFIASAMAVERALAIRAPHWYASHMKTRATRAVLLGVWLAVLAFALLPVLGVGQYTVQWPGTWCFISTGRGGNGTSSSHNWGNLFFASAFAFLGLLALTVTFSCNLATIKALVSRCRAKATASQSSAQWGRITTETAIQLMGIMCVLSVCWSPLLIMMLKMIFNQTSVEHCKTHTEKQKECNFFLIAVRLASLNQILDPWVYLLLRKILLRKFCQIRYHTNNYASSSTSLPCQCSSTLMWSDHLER
# [4] = target: T1, Prostaglandin F2-alpha receptor; assay: Displacement of [3H]PGF2-alpha from human FP-receptor expressed in CHO-KI cells; format: cell-based
# Thromboxane A2 receptor [5] = target: T4, Thromboxane A2 receptor (Homo sapiens, UniProt P21731); assay: Functional activity in RAT-1cells, transiently-transfected with human TP-receptor (% of control ligand, [3H]-U-46,619=100%)
# T4 sequence (P21731 whole entry): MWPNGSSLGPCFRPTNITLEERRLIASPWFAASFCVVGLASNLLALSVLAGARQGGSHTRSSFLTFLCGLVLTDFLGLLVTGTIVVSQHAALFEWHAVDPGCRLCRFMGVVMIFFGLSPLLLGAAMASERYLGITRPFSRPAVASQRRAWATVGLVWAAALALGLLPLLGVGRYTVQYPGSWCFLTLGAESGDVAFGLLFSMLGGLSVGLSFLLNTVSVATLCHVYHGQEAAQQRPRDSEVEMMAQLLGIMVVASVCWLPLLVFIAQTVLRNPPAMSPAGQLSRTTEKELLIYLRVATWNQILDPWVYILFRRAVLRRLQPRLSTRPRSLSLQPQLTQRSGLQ
# [6] = target: T1, Prostaglandin F2-alpha receptor; assay: Displacement of [3H]PGF-2 from human FP-receptor expressed in CHO-KI cells; format: cell-based
# Thromboxane A2 receptor [7] = target: T4, Thromboxane A2 receptor; assay: Displacement of [3H]-U-46,619 from human TP-receptor expressed in CHO-KI cells; format: cell-based
# [8] = target: T3, Prostaglandin E2 receptor EP3 subtype; assay: Displacement of [3H]PGE-2 from human Prostaglandin E receptor EP3 expressed in CHO-KI cells; format: cell-based
# [9] = target: T2, Prostaglandin E2 receptor EP1 subtype; assay: Displacement of [3H]PGE-2 from Prostaglandin E receptor EP1 expressed in CHO-KI cells; format: cell-based
# [10] = target: T3, Prostaglandin E2 receptor EP3 subtype; assay: Compound was evaluated for its ability to displace [3H]-PGE-2 from human Prostaglandin E receptor EP3 isolated from CHO-KI cells; format: cell-based
# [11] = target: T2, Prostaglandin E2 receptor EP1 subtype; assay: Compound was evaluated for its ability to displace [3H]PGE-2 from human Prostaglandin E receptor EP1 isolated from CHO-KI cells (% of control ligand, 17-phi-PGE2=80%); format: cell-based
# [12] = target: T2, Prostaglandin E2 receptor EP1 subtype; assay: Functional activity in RAT-1cells, transiently-transfected with human Prostaglandin E receptor EP1 (% of control ligand, 17-phi-PGE2=100%)
# [13] = target: T1, Prostaglandin F2-alpha receptor; assay: Functional activity in RAT-1cells, transiently-transfected with human FP-receptor (% of control ligand, fluprostenol=90%)
# Thromboxane A2 receptor [14] = target: T4, Thromboxane A2 receptor; assay: Functional activity in RAT-1cells, transiently-transfected with human TP-receptor (% of control ligand, [3H]-U-46,619=50%)
# [15] = target: T3, Prostaglandin E2 receptor EP3 subtype; assay: Functional activity in RAT-1cells, transiently-transfected with human Prostaglandin E receptor EP3 (% of control ligand, sulprostone=130%)
# Thromboxane A2 receptor [16] = target: T4, Thromboxane A2 receptor; assay: Functional activity in RAT-1cells, transiently-transfected with human TP-receptor (% of control ligand, [3H]-U-46,619=95%)
# [17] = target: T1, Prostaglandin F2-alpha receptor; assay: Functional activity in RAT-1cells, transiently-transfected with human FP-receptor (% of control ligand, fluprostenol=150%)
# [18] = target: T2, Prostaglandin E2 receptor EP1 subtype; assay: Functional activity in RAT-1cells, transiently-transfected with human Prostaglandin E receptor EP1 (% of control ligand, 17-phi-PGE2=80%)
# [19] = target: T1, Prostaglandin F2-alpha receptor; assay: Functional activity in RAT-1cells, transiently-transfected with human FP-receptor (% of control ligand, fluprostenol=100%)
# Thromboxane A2 receptor [20] = target: T4, Thromboxane A2 receptor; assay: Functional activity in RAT-1cells, transiently-transfected with human TP-receptor (% of control ligand, [3H]-U-46,619=90%)
# [21] = target: T1, Prostaglandin F2-alpha receptor; assay: Functional activity in RAT-1cells, transiently-transfected with human FP-receptor (% of control ligand, fluprostenol=87%)
# [22] = target: T2, Prostaglandin E2 receptor EP1 subtype; assay: Functional activity in RAT-1cells, transiently-transfected with human Prostaglandin E receptor EP1 (% of control ligand, 17-phi-PGE2<20%)
# Thromboxane A2 receptor [23] = target: T4, Thromboxane A2 receptor; assay: Functional activity in RAT-1cells, transiently-transfected with human TP-receptor (% of control ligand, [3H]-U-46,619<20%)
# [24] = target: T3, Prostaglandin E2 receptor EP3 subtype; assay: Functional activity in RAT-1cells, transiently-transfected with human Prostaglandin E receptor EP3 (% of control ligand, sulprostone<20%)
# [25] = target: T1, Prostaglandin F2-alpha receptor; assay: Functional activity in RAT-1cells, transiently-transfected with human FP-receptor (% of control ligand, fluprostenol<20%)
# [26] = target: T3, Prostaglandin E2 receptor EP3 subtype; assay: Functional activity in RAT-1cells, transiently-transfected with human Prostaglandin E receptor EP3(% of control ligand, sulprostone=75%)
# [27] = target: T3, Prostaglandin E2 receptor EP3 subtype; assay: Functional activity in RAT-1cells, transiently-transfected with human Prostaglandin E receptor EP3 (% of control ligand, sulprostone=50%)
# T1 sequence (P43088 whole entry): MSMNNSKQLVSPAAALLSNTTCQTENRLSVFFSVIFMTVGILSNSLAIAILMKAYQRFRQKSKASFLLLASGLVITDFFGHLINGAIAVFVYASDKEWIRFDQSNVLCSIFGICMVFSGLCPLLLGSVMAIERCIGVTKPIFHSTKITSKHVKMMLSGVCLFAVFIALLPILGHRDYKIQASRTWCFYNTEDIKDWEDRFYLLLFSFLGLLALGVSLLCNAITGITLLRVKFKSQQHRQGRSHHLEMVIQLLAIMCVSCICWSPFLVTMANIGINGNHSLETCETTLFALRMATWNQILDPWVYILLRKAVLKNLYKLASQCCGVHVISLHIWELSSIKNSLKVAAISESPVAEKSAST
SMILES,IC50 [6] [µM],IC50 (Thromboxane A2 receptor [7]) [µM],IC50 [8] [µM],IC50 [9] [µM],also measured
CCCCC[C@H](O)CC[C@@H]1[C@@H](CCCCCCC(=O)O)[C@@H](O)C[C@H]1O,–,–,–,–,EC50 [1]: 5 µM; EC50 [2]: > 10 µM; EC50 [3]: > 20 µM; IC50 [4]: 0.522 µM; EC50 (Thromboxane A2 receptor [5]): 30 µM
O=C(O)CCCCCC[C@@H]1[C@@H](CC[C@@H](O)CCc2ccc(C(F)(F)F)cc2)[C@H](O)C[C@@H]1O,3.63,–,–,–,–
O=C(O)CCCCCC[C@@H]1[C@@H](CC[C@@H](O)CCc2ccc(F)cc2)[C@H](O)C[C@@H]1O,0.21,> 10,> 10,3.45,–
N#Cc1cccc(CC[C@H](O)CC[C@@H]2[C@@H](CCCCCCC(=O)O)[C@@H](O)C[C@H]2O)c1,0.21,> 10,–,> 10,IC50 [10]: > 10 µM
COc1cccc(CC[C@H](O)CC[C@@H]2[C@@H](CCCCCCC(=O)O)[C@@H](O)C[C@H]2O)c1,1.62,> 10,> 10,–,IC50 [11]: > 10 µM
CCc1cccc(CC[C@H](O)CC[C@@H]2[C@@H](CCCCCCC(=O)O)[C@@H](O)C[C@H]2O)c1,0.54,> 10,> 10,> 10,–
Cc1ccccc1CC[C@H](O)CC[C@@H]1[C@@H](CCCCCCC(=O)O)[C@@H](O)C[C@H]1O,0.63,> 10,> 10,10,–
O=C(O)CCCCCC[C@@H]1[C@@H](CC[C@@H](O)CCc2cccc(F)c2)[C@H](O)C[C@@H]1O,0.042,> 10,3.7,10,–
O=C(O)CCCCCC[C@@H]1[C@@H](CC[C@@H](O)CCc2cccc(C(F)(F)F)c2)[C@H](O)C[C@@H]1O,0.0086,> 10,> 10,> 10,EC50 [12]: 30 µM; EC50 [3]: > 20 µM; IC50 [4]: 0.0086 µM; EC50 [13]: 0.085 µM; EC50 (Thromboxane A2 receptor [14]): > 20 µM
O=C(O)CCCCCC[C@@H]1[C@@H](CC[C@@H](O)CCc2ccccc2F)[C@H](O)C[C@@H]1O,0.076,> 10,> 10,3.1,–
CCCCC(C)(C)[C@H](O)/C=C/[C@@H]1[C@@H](C/C=C\CCCC(=O)O)[C@@H](O)C[C@H]1O,–,–,–,–,EC50 [15]: 2 µM; EC50 (Thromboxane A2 receptor [16]): 0.024 µM; EC50 [17]: 0.09 µM; EC50 [18]: 0.3 µM; IC50 [4]: 0.016 µM
Cc1ccc(CC[C@H](O)CC[C@@H]2[C@@H](CCCCCCC(=O)O)[C@@H](O)C[C@H]2O)cc1,4.4,–,–,–,–
COc1ccc(CC[C@H](O)CC[C@@H]2[C@@H](CCCCCCC(=O)O)[C@@H](O)C[C@H]2O)cc1,0.29,> 10,> 10,> 10,–
O=C(O)CCCCCC[C@@H]1[C@@H](CC[C@@H](O)CCc2ccccc2)[C@H](O)C[C@@H]1O,0.082,> 10,> 10,1.1,–
O=C(O)CCCCCC[C@@H]1[C@@H](CC[C@@H](O)COc2cccc(Cl)c2)[C@H](O)C[C@@H]1O,–,–,–,–,EC50 [19]: 0.009 µM; EC50 (Thromboxane A2 receptor [20]): 8 µM; EC50 [12]: 19 µM; EC50 [3]: > 20 µM; IC50 [4]: 0.001 µM
COc1ccccc1CC[C@H](O)CC[C@@H]1[C@@H](CCCCCCC(=O)O)[C@@H](O)C[C@H]1O,5.89,–,–,–,–
O=C(O)CCCCCC[C@@H]1[C@@H](CC[C@@H](O)CCc2ccccc2C(F)(F)F)[C@H](O)C[C@@H]1O,2.14,–,–,–,–
O=C(O)CCC/C=C\C[C@@H]1[C@@H](/C=C/[C@@H](O)CCc2cccc(C(F)(F)F)c2)[C@H](O)C[C@@H]1O,–,–,–,–,EC50 [2]: > 20 µM; EC50 [3]: > 20 µM; EC50 [21]: 0.064 µM; IC50 [4]: 0.01 µM; EC50 (Thromboxane A2 receptor [14]): 2.1 µM
CCCCC(C)(C)[C@H](O)CC[C@@H]1[C@@H](CCCCCCC(=O)O)[C@@H](O)C[C@H]1O,–,–,–,–,EC50 [22]: > 20 µM; EC50 (Thromboxane A2 receptor [23]): > 20 µM; IC50 [4]: > 1 µM; EC50 [24]: > 20 µM; EC50 [25]: > 20 µM
O=C(O)CCC/C=C\C[C@@H]1[C@@H](/C=C/[C@@H](O)COc2cccc(Cl)c2)[C@H](O)C[C@@H]1O [CLOPROSTENOL],–,–,–,–,EC50 [26]: 5 µM; EC50 [18]: 0.76 µM; EC50 (Thromboxane A2 receptor [5]): 2.4 µM
CCCCC[C@H](O)/C=C/[C@@H]1[C@@H](C/C=C\CCCC(=O)O)[C@@H](O)C[C@H]1O [DINOPROST],–,–,–,–,EC50 (Thromboxane A2 receptor [16]): 1.4 µM; EC50 [27]: 2.3 µM; EC50 [18]: 0.6 µM
